# Data from PMC12777568 (Antimicrobial Agents and Chemotherapy, 2025).
# Where two headings read alike, the source gives them in different places.
# Key:
# [1] = BIC plasma pharmacokinetics, Phase 1 open-label single-dose DDI study GS-US-380-3909 (B/F/TAF 50/200/25 mg with antacid or mineral supplements); assay type: in vivo, human; conditions: both sexes, human, plasma, oral; for AUC(0-t): BIC plasma AUClast; for Tmax: BIC plasma Tmax, median (Q1, Q3)
# Description: Eligible participants were adult (18–45 years) males and non-pregnant, non-lactating females in good general health at a screening evaluation performed no more than 28 days before the first study dose. […] Full eligibility criteria are available in the supplement. All prescription and over-the-counter medications except vitamins, acetaminophen, ibuprofen, and hormonal contraceptives were not permitted during study participation. Three dosing cohorts were evaluated (Table 1). […] Vitamins and/or other supplements were not permitted on the dosing day. […] Participants received maximum-strength antacid oral suspension (four teaspoons; 20 mL; 1,600 mg aluminum hydroxide/1,600 mg magnesium hydroxide/160 mg simethicone; referred to as “aluminum/magnesium-containing antacid”) on Day 9, calcium carbonate (1,200 mg; 2 × 600 mg tablets) on Day 17, and ferrous fumarate (1 × 324 mg tablet) on Day 25. […] All samples were analyzed within the timeframe determined using frozen stability storage data. […] PK parameters were estimated using Phoenix WinNonlin software (Version 6.4, Pharsight Corporation, Princeton, NJ, USA) using standard noncompartmental analysis methods. […] The estimated 90% CIs were compared to a prespecified lack of DDI boundary of 70%–143%. […] A minimum of 12 evaluable participants in each cohort was calculated to be needed to reject the null hypothesis (i.e., the 90% CI for the GLSM ratio for each PK parameter was outside the prespecified boundary) with ≥90% power.
# [2] = parameters: method as in earlier work; conditions: cited from earlier work
compound,measurement,setting,value
"O=C(NCc1c(F)cc(F)cc1F)c1cn2c(c(O)c1=O)C(=O)N1[C@H]3CC[C@H](C3)O[C@@H]1C2 [BIC, bictegravir]",AUC(0-inf),"[1]; BIC plasma AUCinf, mean (%CV), Cohort 2 fasted, B/F/TAF alone, N = 14",133000 ng·h/mL
same,AUC(0-inf),"[1]; BIC plasma AUCinf, mean (%CV), Cohort 3, B/F/TAF alone (fasted), N = 14",93700 ng·h/mL
same,AUC(0-inf),"[1]; BIC plasma AUCinf, mean (%CV), Cohort 3 fed, B/F/TAF + aluminum/magnesium-containing antacid simultaneous, N = 14",50800 ng·h/mL
same,AUC(0-inf),"[1]; BIC plasma AUCinf, mean (%CV), Cohort 3 fed, B/F/TAF + calcium carbonate simultaneous, N = 14",94800 ng·h/mL
same,AUC(0-inf),"[1]; BIC plasma AUCinf, mean (%CV), Cohort 3 fed, B/F/TAF + ferrous fumarate simultaneous, N = 14",77300 ng·h/mL
same,AUC(0-t),"[1]; mean (%CV), Cohort 1 fasted, B/F/TAF + aluminum/magnesium-containing antacid simultaneous, N = 14",26200 ng·h/mL
same,AUC(0-t),"[1]; mean (%CV), Cohort 1 fasted, B/F/TAF + calcium carbonate simultaneous, N = 14",80400 ng·h/mL
same,AUC(0-t),"[1]; mean (%CV), Cohort 1 fasted, B/F/TAF + ferrous fumarate simultaneous, N = 14",43400 ng·h/mL
same,AUC(0-t),"[1]; mean (%CV), Cohort 1 fasted, B/F/TAF alone, N = 14",117000 ng·h/mL
same,AUC(0-t),"[1]; mean (%CV), Cohort 2 fasted, B/F/TAF 2 hours after aluminum/magnesium-containing antacid, N = 13",63400 ng·h/mL
same,AUC(0-t),"[1]; mean (%CV), Cohort 2 fasted, B/F/TAF 2 hours before aluminum/magnesium-containing antacid, N = 13",111000 ng·h/mL
same,AUC(0-t),"[1]; mean (%CV), Cohort 2 fasted, B/F/TAF alone, N = 14",125000 ng·h/mL
same,AUC(0-t),"[1]; mean (%CV), Cohort 3, B/F/TAF alone (fasted), N = 14",91200 ng·h/mL
same,AUC(0-t),"[1]; mean (%CV), Cohort 3 fed, B/F/TAF + aluminum/magnesium-containing antacid simultaneous, N = 14",49200 ng·h/mL
same,AUC(0-t),"[1]; mean (%CV), Cohort 3 fed, B/F/TAF + calcium carbonate simultaneous, N = 14",91500 ng·h/mL
same,AUC(0-t),"[1]; mean (%CV), Cohort 3 fed, B/F/TAF + ferrous fumarate simultaneous, N = 14",74500 ng·h/mL
same,concentration at 24 h,"[1]; BIC plasma C24, mean (%CV), Cohort 1 fasted, B/F/TAF + aluminum/magnesium-containing antacid simultaneous, N = 14",430 ng/mL
same,concentration at 24 h,"[1]; BIC plasma C24, mean (%CV), Cohort 1 fasted, B/F/TAF + calcium carbonate simultaneous, N = 14",1220 ng/mL
same,concentration at 24 h,"[1]; BIC plasma C24, mean (%CV), Cohort 1 fasted, B/F/TAF + ferrous fumarate simultaneous, N = 14",670 ng/mL
same,concentration at 24 h,"[1]; BIC plasma C24, mean (%CV), Cohort 1 fasted, B/F/TAF alone, N = 14",1800 ng/mL
same,concentration at 24 h,"[1]; BIC plasma C24, mean (%CV), Cohort 2 fasted, B/F/TAF 2 hours after aluminum/magnesium-containing antacid, N = 13",990 ng/mL
same,concentration at 24 h,"[1]; BIC plasma C24, mean (%CV), Cohort 2 fasted, B/F/TAF 2 hours before aluminum/magnesium-containing antacid, N = 13",1700 ng/mL
same,concentration at 24 h,"[1]; BIC plasma C24, mean (%CV), Cohort 2 fasted, B/F/TAF alone, N = 14",2010 ng/mL
same,concentration at 24 h,"[1]; BIC plasma C24, mean (%CV), Cohort 3, B/F/TAF alone (fasted), N = 14",1410 ng/mL
same,concentration at 24 h,"[1]; BIC plasma C24, mean (%CV), Cohort 3 fed, B/F/TAF + aluminum/magnesium-containing antacid simultaneous, N = 14",800 ng/mL
same,concentration at 24 h,"[1]; BIC plasma C24, mean (%CV), Cohort 3 fed, B/F/TAF + calcium carbonate simultaneous, N = 14",1460 ng/mL
same,concentration at 24 h,"[1]; BIC plasma C24, mean (%CV), Cohort 3 fed, B/F/TAF + ferrous fumarate simultaneous, N = 14",1230 ng/mL
same,Cmax,"[1]; BIC plasma Cmax, mean (%CV), Cohort 1 fasted, B/F/TAF + aluminum/magnesium-containing antacid simultaneous, N = 14",1200 ng/mL
same,Cmax,"[1]; BIC plasma Cmax, mean (%CV), Cohort 1 fasted, B/F/TAF + ferrous fumarate simultaneous, N = 14",1670 ng/mL
same,Cmax,"[1]; BIC plasma Cmax, mean (%CV), Cohort 2 fasted, B/F/TAF 2 hours after aluminum/magnesium-containing antacid, N = 13",2740 ng/mL
same,Cmax,"[1]; BIC plasma Cmax, mean (%CV), Cohort 3 fed, B/F/TAF + aluminum/magnesium-containing antacid simultaneous, N = 14",2450 ng/mL
same,Cmax,"[1]; BIC plasma Cmax, mean (%CV), Cohort 3 fed, B/F/TAF + calcium carbonate simultaneous, N = 14",4110 ng/mL
same,Tmax,"[1]; Cohort 1 fasted, B/F/TAF + ferrous fumarate simultaneous, N = 14",3.5 h
same,Tmax,"[1]; Cohort 3 fed, B/F/TAF + aluminum/magnesium-containing antacid simultaneous, N = 14",3.5 h
same,Tmax,"[1]; Cohort 3 fed, B/F/TAF + calcium carbonate simultaneous, N = 14",3.5 h
same,Tmax,"[1]; Cohort 3 fed, B/F/TAF + ferrous fumarate simultaneous, N = 14",4 h
same,AUC(0-inf),"[1]; Cohort 1 fasted, B/F/TAF with aluminum/magnesium-containing antacid simultaneous, N = 14, read-out: AUCinf, test GLSM",25200 ng·h/mL
same,concentration at 24 h,"[1]; Cohort 1 fasted, B/F/TAF with aluminum/magnesium-containing antacid simultaneous, N = 14, read-out: C24, test GLSM",380 ng/mL
same,Cmax,"[1]; Cohort 1 fasted, B/F/TAF with aluminum/magnesium-containing antacid simultaneous, N = 14, read-out: Cmax, test GLSM",1100 ng/mL
same,AUC(0-inf),"[1]; Cohort 1 fasted, B/F/TAF with calcium carbonate simultaneous, N = 14, read-out: AUCinf, test GLSM",79100 ng·h/mL
same,concentration at 24 h,"[1]; Cohort 1 fasted, B/F/TAF with calcium carbonate simultaneous, N = 14, read-out: C24, test GLSM",1130 ng/mL
same,Cmax,"[1]; Cohort 1 fasted, B/F/TAF with calcium carbonate simultaneous, N = 14, read-out: Cmax, test GLSM",3230 ng/mL
same,AUC(0-inf),"[1]; Cohort 1 fasted, B/F/TAF with ferrous fumarate simultaneous, N = 14, read-out: AUCinf, test GLSM",44000 ng·h/mL
same,concentration at 24 h,"[1]; Cohort 1 fasted, B/F/TAF with ferrous fumarate simultaneous, N = 14, read-out: C24, test GLSM",640 ng/mL
same,Cmax,"[1]; Cohort 1 fasted, B/F/TAF with ferrous fumarate simultaneous, N = 14, read-out: Cmax, test GLSM",1610 ng/mL
same,AUC(0-inf),"[1]; Cohort 1 fasted, BIC alone (N = 14), read-out: AUCinf, reference GLSM",119000 ng·h/mL
same,concentration at 24 h,"[1]; Cohort 1 fasted, BIC alone (N = 14), read-out: C24, reference GLSM",1740 ng/mL
same,AUC(0-inf),"[1]; Cohort 2 fasted, B/F/TAF 2 h after aluminum/magnesium-containing antacid, N = 14, read-out: AUCinf, test GLSM",61100 ng·h/mL
same,concentration at 24 h,"[1]; Cohort 2 fasted, B/F/TAF 2 h after aluminum/magnesium-containing antacid, N = 14, read-out: C24, test GLSM",900 ng/mL
same,Cmax,"[1]; Cohort 2 fasted, B/F/TAF 2 h after aluminum/magnesium-containing antacid, N = 14, read-out: Cmax, test GLSM",2430 ng/mL
same,AUC(0-inf),"[1]; Cohort 2 fasted, B/F/TAF 2 h before aluminum/magnesium-containing antacid, N = 14, read-out: AUCinf, test GLSM",111000 ng·h/mL
same,concentration at 24 h,"[1]; Cohort 2 fasted, B/F/TAF 2 h before aluminum/magnesium-containing antacid, N = 14, read-out: C24, test GLSM",1650 ng/mL
same,AUC(0-inf),"[1]; Cohort 2 fasted, BIC alone (N = 14), read-out: AUCinf, reference GLSM",128000 ng·h/mL
same,concentration at 24 h,"[1]; Cohort 2 fasted, BIC alone (N = 14), read-out: C24, reference GLSM",1930 ng/mL
same,Cmax,"[1]; Cohort 2 fasted, BIC alone (N = 14), read-out: Cmax, reference GLSM",5840 ng/mL
same,AUC(0-inf),"[1]; Cohort 3, BIC alone (N = 14), fasted, read-out: AUCinf, reference GLSM",89900 ng·h/mL
same,concentration at 24 h,"[1]; Cohort 3, BIC alone (N = 14), fasted, read-out: C24, reference GLSM",1350 ng/mL
same,AUC(0-inf),"[1]; Cohort 3 fed, B/F/TAF with aluminum/magnesium-containing antacid simultaneous, N = 14, read-out: AUCinf, test GLSM",47900 ng·h/mL
same,concentration at 24 h,"[1]; Cohort 3 fed, B/F/TAF with aluminum/magnesium-containing antacid simultaneous, N = 14, read-out: C24, test GLSM",750 ng/mL
same,Cmax,"[1]; Cohort 3 fed, B/F/TAF with aluminum/magnesium-containing antacid simultaneous, N = 14, read-out: Cmax, test GLSM",2340 ng/mL
same,AUC(0-inf),"[1]; Cohort 3 fed, B/F/TAF with calcium carbonate simultaneous, N = 14, read-out: AUCinf, test GLSM",92900 ng·h/mL
same,concentration at 24 h,"[1]; Cohort 3 fed, B/F/TAF with calcium carbonate simultaneous, N = 14, read-out: C24, test GLSM",1430 ng/mL
same,Cmax,"[1]; Cohort 3 fed, B/F/TAF with calcium carbonate simultaneous, N = 14, read-out: Cmax, test GLSM",4070 ng/mL
same,AUC(0-inf),"[1]; Cohort 3 fed, B/F/TAF with ferrous fumarate simultaneous, N = 14, read-out: AUCinf, test GLSM",75400 ng·h/mL
same,concentration at 24 h,"[1]; Cohort 3 fed, B/F/TAF with ferrous fumarate simultaneous, N = 14, read-out: C24, test GLSM",1200 ng/mL
same,Cmax,"[1]; Cohort 3 fed, B/F/TAF with ferrous fumarate simultaneous, N = 14, read-out: Cmax, test GLSM",3410 ng/mL
same,half-life for BIC (median T1/2),[2],~ 17 hours
